Test results published in ChEMBL document CHEMBL5724914, “Linking interpersonal differences in gut microbiota composition and drug biotransformation activity” (2024).

Key:
[1] = human gut metagenome, 24 h, 2 µM
[2] = The drug is tested on WLS-098 corresponding to human gut metagenome with ENA study accession number: PRJEB37062 and ENA sample accession number: ERS12561754 for biotransformation under anaerobic condition. The drug concentrations were measured over 9 timepoints collected between 0 and 24 hours of incubation by liquid-chromatography-coupled mass spectrometry (LC–MS); conditions: 2 µM
[3] = The drug is tested on Z-002 corresponding to rabbit gut metagenome with ENA study accession number: PRJEB37062 and ENA sample accession number: ERS12561802 for biotransformation under anaerobic condition. The drug concentrations were measured over 9 timepoints collected between 0 and 24 hours of incubation by liquid-chromatography-coupled mass spectrometry (LC–MS); conditions: 2 µM
[4] = human gut metagenome, 24 h, 2 µM; remark: listed apart in the source
[5] = The drug is tested on WLS-069 corresponding to human gut metagenome with ENA study accession number: PRJEB37062 and ENA sample accession number: ERS12561748 for biotransformation under anaerobic condition. The drug concentrations were measured over 9 timepoints collected between 0 and 24 hours of incubation by liquid-chromatography-coupled mass spectrometry (LC–MS); conditions: 2 µM
[6] = human gut metagenome, 24 h, 2 µM; remark: listed apart in the source
[7] = human gut metagenome, 24 h, 2 µM; remark: listed apart in the source
[8] = human gut metagenome, 24 h, 2 µM; remark: listed apart in the source
[9] = human gut metagenome, 24 h, 2 µM; remark: listed apart in the source
[10] = The drug is tested on Z-019 corresponding to rat gut metagenome with ENA study accession number: PRJEB37062 and ENA sample accession number: ERS12561818 for biotransformation under anaerobic condition. The drug concentrations were measured over 9 timepoints collected between 0 and 24 hours of incubation by liquid-chromatography-coupled mass spectrometry (LC–MS); conditions: 2 µM
[11] = human gut metagenome, 24 h, 2 µM; remark: listed apart in the source
[12] = human gut metagenome, 24 h, 2 µM; remark: listed apart in the source
[13] = human gut metagenome, 24 h, 2 µM; remark: listed apart in the source
[14] = human gut metagenome, 24 h, 2 µM; remark: listed apart in the source
[15] = The drug is tested on Z-007 corresponding to rat gut metagenome with ENA study accession number: PRJEB37062 and ENA sample accession number: ERS12561807 for biotransformation under anaerobic condition. The drug concentrations were measured over 9 timepoints collected between 0 and 24 hours of incubation by liquid-chromatography-coupled mass spectrometry (LC–MS); conditions: 2 µM
[16] = human gut metagenome, 24 h, 2 µM; remark: listed apart in the source
[17] = The drug is tested on WLS-073 corresponding to human gut metagenome with ENA study accession number: PRJEB37062 and ENA sample accession number: ERS12561749 for biotransformation under anaerobic condition. The drug concentrations were measured over 9 timepoints collected between 0 and 24 hours of incubation by liquid-chromatography-coupled mass spectrometry (LC–MS); conditions: 2 µM
[18] = The drug is tested on WLS-240 corresponding to human gut metagenome with ENA study accession number: PRJEB37062 and ENA sample accession number: ERS12561773 for biotransformation under anaerobic condition. The drug concentrations were measured over 9 timepoints collected between 0 and 24 hours of incubation by liquid-chromatography-coupled mass spectrometry (LC–MS); conditions: 2 µM
[19] = The drug is tested on Z-003 corresponding to pig gut metagenome with ENA study accession number: PRJEB37062 and ENA sample accession number: ERS12561803 for biotransformation under anaerobic condition. The drug concentrations were measured over 9 timepoints collected between 0 and 24 hours of incubation by liquid-chromatography-coupled mass spectrometry (LC–MS); conditions: 2 µM
[20] = The drug is tested on Z-017 corresponding to mouse gut metagenome with ENA study accession number: PRJEB37062 and ENA sample accession number: ERS12561816 for biotransformation under anaerobic condition. The drug concentrations were measured over 9 timepoints collected between 0 and 24 hours of incubation by liquid-chromatography-coupled mass spectrometry (LC–MS); conditions: 2 µM
Also: call rule not given here.

| SMILES | Bacterial Biotransformation [1] | Bacterial Biotransformation [2] | Bacterial Biotransformation [3] | Bacterial Biotransformation [4] | Bacterial Biotransformation [5] | Bacterial Biotransformation [6] | Bacterial Biotransformation [7] | Bacterial Biotransformation [8] | Bacterial Biotransformation [9] | Bacterial Biotransformation [10] | Bacterial Biotransformation [11] | Bacterial Biotransformation [12] | Bacterial Biotransformation [13] | Bacterial Biotransformation [14] | Bacterial Biotransformation [15] | Bacterial Biotransformation [16] | Bacterial Biotransformation [17] | Bacterial Biotransformation [18] | Bacterial Biotransformation [19] | Bacterial Biotransformation [20] |
| --- | --- | --- | --- | --- | --- | --- | --- | --- | --- | --- | --- | --- | --- | --- | --- | --- | --- | --- | --- | --- |
| Br.CN1CCC[C@@H]1Cc1c[nH]c2ccc(CCS(=O)(=O)c3ccccc3)cc12 [ELETRIPTAN HYDROBROMIDE] | Compound NOT metabolized | Compound metabolized | Compound metabolized | Compound metabolized | Compound metabolized | Compound metabolized | Compound metabolized | Compound metabolized | Compound NOT metabolized | Compound NOT metabolized | Compound NOT metabolized | Compound NOT metabolized | Compound metabolized | Compound metabolized | Compound NOT metabolized | Compound metabolized | Compound metabolized | Compound metabolized | Compound NOT metabolized | Compound NOT metabolized |
| CCc1cccc2c3c([nH]c12)C(CC)(CC(=O)O)OCC3 (stereo not given) [ETODOLAC] | Compound metabolized | Compound metabolized | Compound NOT metabolized | Compound metabolized | Compound metabolized | Compound metabolized | Compound metabolized | Compound metabolized | Compound metabolized | Compound NOT metabolized | Compound metabolized | Compound metabolized | Compound metabolized | Compound metabolized | Compound NOT metabolized | Compound metabolized | Compound NOT metabolized | Compound metabolized | Compound NOT metabolized | Compound NOT metabolized |
| c1ccc2[nH]c(-c3cscn3)nc2c1 [THIABENDAZOLE] | Compound NOT metabolized | Compound metabolized | Compound NOT metabolized | Compound NOT metabolized | Compound NOT metabolized | Compound metabolized | Compound metabolized | Compound NOT metabolized | Compound NOT metabolized | Compound NOT metabolized | Compound NOT metabolized | Compound NOT metabolized | Compound metabolized | Compound NOT metabolized | Compound NOT metabolized | Compound NOT metabolized | Compound NOT metabolized | Compound metabolized | Compound NOT metabolized | Compound NOT metabolized |
| CCOc1cc(CC(=O)N[C@@H](CC(C)C)c2ccccc2N2CCCCC2)ccc1C(=O)O [REPAGLINIDE] | Compound metabolized | Compound metabolized | Compound metabolized | Compound metabolized | Compound metabolized | Compound metabolized | Compound metabolized | Compound metabolized | Compound metabolized | Compound NOT metabolized | Compound metabolized | Compound metabolized | Compound metabolized | Compound metabolized | Compound metabolized | Compound metabolized | Compound metabolized | Compound metabolized | Compound metabolized | Compound metabolized |
| CCCN(CCC)CCc1cccc2c1CC(=O)N2 [ROPINIROLE] | Compound NOT metabolized | Compound metabolized | Compound metabolized | Compound metabolized | Compound NOT metabolized | Compound metabolized | Compound metabolized | Compound metabolized | Compound metabolized | Compound NOT metabolized | Compound NOT metabolized | Compound NOT metabolized | Compound metabolized | Compound metabolized | Compound NOT metabolized | Compound NOT metabolized | Compound NOT metabolized | Compound NOT metabolized | Compound metabolized | Compound NOT metabolized |
| COc1ccc(C(CN(C)C)C2(O)CCCCC2)cc1 (stereo not given) [VENLAFAXINE] | Compound NOT metabolized | Compound NOT metabolized | Compound NOT metabolized | Compound NOT metabolized | Compound NOT metabolized | Compound metabolized | Compound NOT metabolized | Compound NOT metabolized | Compound metabolized | Compound NOT metabolized | Compound NOT metabolized | Compound NOT metabolized | Compound NOT metabolized | Compound NOT metabolized | Compound NOT metabolized | Compound NOT metabolized | Compound NOT metabolized | Compound metabolized | Compound NOT metabolized | Compound NOT metabolized |
